Key:
Format in all cases: in vivo
[1] = system: Cirsium arvense (Canadian thistle); experiment: Greenhouse postemergence herbicidal effect on CIRAR; conditions: Compound A 0, Pyraflufen-ethyl 6 g/ha
Description: (§1) Greenhouse Trial Methodology—Evaluation of Postemergence Herbicidal Effect
(§2) Seeds of the desired test plant species were planted in a 90:10% v/v (volume/volume) mixture of PRO-MIX® BX (Premier Tech Horticulture, Quakertown, Pa., USA) and PROFILE® GREENS GRADE™ (Profile Products LLC, Buffalo Grove, Ill., USA) planting mixture, which typically has a pH of 5.2 to 6.2 and an organic matter content of at least 50 percent, in plastic pots with a surface area of 103.2 square centimeters (cm^2). In some aspects or embodiments, to help ensure good germination and healthy plants, a fungicide treatment and/or other chemical or physical treatment was applied. The plants were grown for 7-36 days (d) in a greenhouse with an approximate 14-hour (h) photoperiod which was maintained at about 23° C. during the day and 22° C. during the night. Nutrients and water were added on a regular basis and supplemental lighting was provided with overhead metal halide 1000-Watt lamps as necessary. The plants were employed for testing when they reached the second or third true leaf stage.
(§3) Emulsifiable concentrates of each of each pyridine carboxylate herbicide (Compound A or Compound B) were prepared at 100 grams acid equivalent per liter (g ae/L). The emulsifiable concentrates also included a safener, cloquintocet mexyl, at 120 grams active ingredient per liter (g ai/L). An aliquot of each emulsifiable concentrate was placed in a 25 mL glass vial and diluted with an aqueous mixture of 1.25% (v/v) ACTIROB® B esterified rapeseed oil (Bayer Crop Science, Research Triangle Park, N.C., USA) or MSO® Concentrate with LECI-TECH® methylated soybean oil (Loveland Products, Loveland, Colo., USA) to obtain concentrated stock solutions at the highest application rate for each herbicide, based upon a 12 milliliter (mL) application volume at a rate of 187 liters per hectare (L/ha). The concentrated stock solutions were further diluted with an aqueous mixture of 1.25% v/v ACTIROB® B or MSO® Concentrate with LECI-TECH® to obtain stock solutions at reduced application rates for each herbicide. Spray solutions of the herbicide combinations (Compound A or Compound B plus PROTOX inhibitor herbicide) were prepared by adding weighed amounts or aliquots of the PROTOX inhibitor herbicides to the stock solutions of Compound A or Compound B to form 12-mL spray solutions in two-way combinations.
(§4) The spray solutions were applied to the plant material with an overhead Mandel track sprayer equipped with 8002E nozzles calibrated to deliver 187 L/ha over an application area of 0.503 square meters (m^2) at a spray height of 18 inches (43 centimeters (cm)) above the average plant canopy. Control plants were sprayed in the same manner with the solvent blank. All pyridine carboxylate herbicide (component a) application rates are given as “g ae/ha” and all PROTOX inhibitor herbicide (component b) application rates are given as “g ai/ha.”
(§5) The treated plants and control plants were placed in a greenhouse as described above and watered by sub-irrigation to prevent wash-off of the test compounds. After 20-22 d, the condition of the test plants as compared with that of the control plants was determined visually and scored on a scale of 0 to 100 percent where 0 corresponds to no injury and 100 corresponds to complete kill.

[2] = system: Kochia scoparia (kochia); experiment: Greenhouse postemergence herbicidal effect on KCHSC
Description: as §1, §2, §3, §4, §5

[3] = system: Amaranthus retroflexus (pigweed); experiment: Greenhouse postemergence herbicidal effect on AMARE; conditions: Compound A 0, Pyraflufen-ethyl 6 g/ha
Description: as §1, §2, §3, §4, §5

[4] = system: Triticum aestivum (spring wheat); experiment: Greenhouse postemergence phytotoxicity on crop TRZAS
Description: as §1, §2, §3, §4, §5

[5] = system: Polygonum convolvulus (wild buckwheat); experiment: Greenhouse postemergence herbicidal effect on POLCO
Description: as §1, §2, §3, §4, §5

[6] = system: Salsola kali (Russian thistle); experiment: Greenhouse postemergence herbicidal effect on SASKR
Description: as §1, §2, §3, §4, §5

[7] = system: Hordeum vulgare (spring barley); experiment: Greenhouse postemergence phytotoxicity on crop HORVS
Description: as §1, §2, §3, §4, §5

[8] = system: Sinapis arvensis (wild mustard); experiment: Greenhouse postemergence herbicidal effect on SINAR
Description: as §1, §2, §3, §4, §5

[9] = system: Chenopodium album L. (common lambsquarters); experiment: Greenhouse postemergence herbicidal effect on CHEAL
Description: as §1, §2, §3, §4, §5

[10] = system: Brassica napus (winter rape); experiment: Greenhouse postemergence herbicidal effect on BRSNW; conditions: Compound A 0, Pyraflufen-ethyl 6 g/ha
Description: as §1, §2, §3, §4, §5

[11] = system: Matricaria chamomilla (wild chamomile); experiment: Greenhouse postemergence herbicidal effect on MATCH; conditions: Compound A 0, Pyraflufen-ethyl 6 g/ha
Description: as §1, §2, §3, §4, §5

[12] = system: Brassica napus (spring rape); experiment: Greenhouse postemergence herbicidal effect on BRSNN; conditions: Compound A 0, Pyraclonil 42.5 g/ha
Description: as §1, §2, §3, §4, §5

[13] = Compound A 0, Pyraflufen-ethyl 6 g/ha
[14] = Compound A 0, Pyraclonil 42.5 g/ha
[15] = Compound A 0, Carfentrazone-ethyl 5 g/ha

CCOC(=O)COc1cc(-c2nn(C)c(OC(F)F)c2Cl)c(F)cc1Cl [Pyraflufen-ethyl, ethyl 2-chloro-5-[4-chloro-5-(difluoromethoxy)-1-methyl-1H-pyrazol-3-yl]-4-fluorophenoxyacetate, reference compound]
% visual injury, Obs [1]: 10%
% visual injury, Obs [2, 13]: 0%
% visual injury, Obs [3]: 18%
% visual injury, Obs [4, 13]: 0%
% visual injury, Obs [5, 13]: 0%
% visual injury, Obs [6, 13]: 5%
% visual injury, Obs [7, 13]: 0%
% visual injury, Obs [8, 13]: 0%
% visual injury, Obs [9, 13]: 5%
% visual injury, Obs [10]: 0%
% visual injury, Obs [11]: 0%

C#CCN(C)c1c(C#N)cnn1-c1nn2c(c1Cl)CCCC2 [Pyraclonil, 1-(3-chloro-4,5,6,7-tetrahydropyrazolo[1,5-a]pyridin-2-yl)-5-[methyl-2-propynylamino]-1H-pyrazole-4-carbonitrile, reference compound]
% visual injury, Obs [12]: 23%
% visual injury, Obs [2, 14]: 15%
% visual injury, Obs [4, 14]: 3%
% visual injury, Obs [5, 14]: 20%
% visual injury, Obs [6, 14]: 78%
% visual injury, Obs [7, 14]: 28%
% visual injury, Obs [8, 14]: 15%
% visual injury, Obs [9, 14]: 15%

CCOC(=O)C(Cl)Cc1cc(-n2nc(C)n(C(F)F)c2=O)c(F)cc1Cl (stereo not drawn) [Carfentrazone-ethyl, ethyl α,2-dichloro-5-[4-(difluoromethyl)-4,5-dihydro-3-methyl-5-oxo-1H-1,2,4-triazol-1-yl]-4-fluorobenzenepropanoate, reference compound]
% visual injury, Obs [2, 15]: 20%
% visual injury, Obs [4, 15]: 0%
% visual injury, Obs [5, 15]: 5%
% visual injury, Obs [6, 15]: 68%
% visual injury, Obs [7, 15]: 8%
